The subject of this assay is aRPE-19 human retinal pigmented epithelial cell line. Nature of the assay: Activation and deactivation of vector constructs containing luciferase (Nano-Glo luminescence assay). It is filed as cell-based. As to conditions: luminescence on day 7. The procedure:
ARPE-19 cells were seeded as described above. 12-24 hours later, cells were transfected with pAAV-LTetL-luc and pAAV-LCuL-luc. Media was replaced the next day and doxycycline or cumate was added to a subset of cells (FIG. 7). The media from the cells were assayed for the expression of marker gene, luciferase, using the Nano-Glo Luciferase assay on day 4 after having a media change on day 3. The Nano-Glow luciferase assay was performed as described above.
Following the luciferase assay, media was changed in all the wells. A subset of cells activated with doxycycline and cumate were washed to deactivate the vector.
A human retinal pigmented epithelial cell line (aRPE-19) was transfected with vector constructs containing Tet or Cu regulatory sequences driving the expression of the marker gene luciferase. Twenty-four hours later, the cells were treated with or without Tet or Cu and incubated for a further 48 hours before assessing the expression of luciferase. The ability of the system to stop expression of the transgene (Luciferase) was examined by removing the Tet or Cu from the cells by washing prior to re-examining Luciferase expression. Cells without Tet or Cu were used as a control as were cells where Tet or Cu was not removed.

From patent publication US12305185B2, “Expression vector and method” (MOUNT SPEC I[…] LTD, priority 2018, dated 2025) come the findings set out here.

Regarding `CC(C)c1ccc(C(=O)O)cc1` [Cu, cumate], the “luciferase expression on addition of regulator compound” value (aRPE-19 cells transfected with Tet or Cu regulated luciferase vector) is listed as “able to induce significant levels of luciferase expression”. The “luciferase expression after removal of regulator compound by washing” value (aRPE-19 cells, 3 days of washes) was “significantly less luciferase being detected”.
